Laboratory results reported in patent US12528812B2 (Genentech, Inc., priority 2020, dated 2026).

Key:
[1] = molecular target: T1, recombinant human JAK1 kinase domain protein (Residues 854-1154) (Homo sapiens, UniProt P23458); assay: JAK1 biochemical assay (LabChip mobility shift, Ki); details: read-out: Biochem JAK1 Ki
T1 construct: human JAK1 kinase domain protein (Residues 854-1154); purchased Proteros Biostructures GmbH (Martinsried, Germany); host or cells: insect cells

[2] = tested on: IL-13-stimulated STAT6 phosphorylation in human lung bronchial epithelial BEAS-2B cell line; assay: P-STAT6 BEAS-2B + IL-13 cell assay; type: cell-based; details: Homo sapiens, BEAS-2B, BEAS2B cells, IL13 stimulation; read-out: Cellular JAK1 PSTAT6 BEAS2B + IL13
How it was run: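 Phospho-STAT6 (Tyr641) was quantified in lysates by MSD electrochemiluminescence after human IL-13 challenge (250 ng/mL stock, 15 min, 37 °C). Before that, BEAS-2B cells cultured 48 h had 1 h compound exposure over 10 concentrations. Percent of control was fitted to a four-parameter logistic model to give IC50.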

[3] = molecular target: Recombinant human JAK2 kinase domain protein (Residues 812-1132) (Homo sapiens, UniProt O60674); assay: JAK2 biochemical assay (LabChip mobility shift, Ki); details: Biochem JAK2 Ki
Sequence of Recombinant human JAK2 kinase domain protein (Residues 812-1132) (O60674 812-1132): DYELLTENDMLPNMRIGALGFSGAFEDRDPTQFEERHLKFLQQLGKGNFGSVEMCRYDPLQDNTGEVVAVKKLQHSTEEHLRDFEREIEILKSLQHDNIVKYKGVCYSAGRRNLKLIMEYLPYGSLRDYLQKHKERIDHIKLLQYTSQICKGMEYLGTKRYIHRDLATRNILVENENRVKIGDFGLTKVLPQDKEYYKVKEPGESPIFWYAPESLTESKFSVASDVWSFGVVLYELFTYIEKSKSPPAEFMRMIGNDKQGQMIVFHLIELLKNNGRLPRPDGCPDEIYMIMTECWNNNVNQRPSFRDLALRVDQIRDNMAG

T1 sequence (P23458 854-1154): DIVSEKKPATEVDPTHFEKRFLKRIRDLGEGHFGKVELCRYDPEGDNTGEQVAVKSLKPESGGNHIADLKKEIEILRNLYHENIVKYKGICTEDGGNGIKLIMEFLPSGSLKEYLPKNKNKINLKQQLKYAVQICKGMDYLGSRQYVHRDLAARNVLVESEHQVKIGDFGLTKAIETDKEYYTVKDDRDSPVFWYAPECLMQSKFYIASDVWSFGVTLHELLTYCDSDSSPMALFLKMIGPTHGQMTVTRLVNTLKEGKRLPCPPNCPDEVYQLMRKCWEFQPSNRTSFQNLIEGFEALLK

| SMILES | Ki [1] | IC50 [2] | Ki [3] |
| --- | --- | --- | --- |
| CN1CC(O)(c2cccc(Oc3ccc(OC(F)F)c(-c4nn(C5COC5)cc4NC(=O)c4cnn5cccnc45)c3)c2)C1 [Example 100, N-[3-[2-(difluoromethoxy)-5-[3-(3-hydroxy-1-methyl-azetidin-3-yl)phenoxy]phenyl]-1-(oxetan-3-yl)pyrazol-4-yl]pyrazolo[1,5-a]pyrimidine-3-carboxamide] | 0.4 nM | 46 nM | 0.46 nM |
| Cc1cc(Oc2ccc(OC(F)F)c(-c3nn(C)cc3NC(=O)c3cnn4cccnc34)c2)cc(C2(O)CNC2)c1 [Example 101, N-[3-[2-(difluoromethoxy)-5-[3-(3-hydroxyazetidin-3-yl)-5-methyl-phenoxy]phenyl]-1-methyl-pyrazol-4-yl]pyrazolo[1,5-a]pyrimidine-3-carboxamide] | 0.2 nM | 180 nM | 0.23 nM |
| Cc1cc(Oc2ccc(OC(F)F)c(-c3nn(C)cc3NC(=O)c3cnn4cccnc34)c2)cc(C2(O)CN(C)C2)c1 [Example 102, N-[3-[2-(difluoromethoxy)-5-[3-(3-hydroxy-1-methyl-azetidin-3-yl)-5-methyl-phenoxy]phenyl]-1-methyl-pyrazol-4-yl]pyrazolo[1,5-a]pyrimidine-3-carboxamide] | 0.44 nM | 24 nM | 0.43 nM |
| Cn1cc(NC(=O)c2cnn3cccnc23)c(-c2cc(Oc3ccc(F)c(C4(O)CNC4)c3)ccc2OC(F)F)n1 [Example 103, N-[3-[2-(difluoromethoxy)-5-[4-fluoro-3-(3-hydroxyazetidin-3-yl)phenoxy]phenyl]-1-methyl-pyrazol-4-yl]pyrazolo[1,5-a]pyrimidine-3-carboxamide] | 0.48 nM | 260 nM | 0.54 nM |
| CN1CC(O)(c2cc(Oc3ccc(OC(F)F)c(-c4nn(C)cc4NC(=O)c4cnn5cccnc45)c3)ccc2F)C1 [Example 104, N-[3-[2-(difluoromethoxy)-5-[4-fluoro-3-(3-hydroxy-1-methyl-azetidin-3-yl)phenoxy]phenyl]-1-methyl-pyrazol-4-yl]pyrazolo[1,5-a]pyrimidine-3-carboxamide] | 0.73 nM | 45 nM | 0.75 nM |
| Cn1cc(NC(=O)c2cnn3cccnc23)c(-c2cc(Oc3cc(C(F)(F)F)cc(C4(O)CNC4)c3)ccc2OC(F)F)n1 [Example 105, N-[3-[2-(difluoromethoxy)-5-[3-(3-hydroxyazetidin-3-yl)-5-(trifluoromethyl)phenoxy]phenyl]-1-methyl-pyrazol-4-yl]pyrazolo[1,5-a]pyrimidine-3-carboxamide] | 0.49 nM | 81 nM | 0.43 nM |
| CN1CC(O)(c2cc(Oc3ccc(OC(F)F)c(-c4nn(C)cc4NC(=O)c4cnn5cccnc45)c3)cc(C(F)(F)F)c2)C1 [Example 106, N-[3-[2-(difluoromethoxy)-5-[3-(3-hydroxy-1-methyl-azetidin-3-yl)-5-(trifluoromethyl)phenoxy]phenyl]-1-methyl-pyrazol-4-yl]pyrazolo[1,5-a]pyrimidine-3-carboxamide] | 1.6 nM | 74 nM | 1.7 nM |
| CCn1cc(NC(=O)c2cnn3cccnc23)c(-c2cc(Oc3cc(F)cc(C4(O)CN(C)C4)c3)ccc2OC(F)F)n1 [Example 107, N-[3-[2-(difluoromethoxy)-5-[3-fluoro-5-(3-hydroxy-1-methyl-azetidin-3-yl)phenoxy]phenyl]-1-ethyl-pyrazol-4-yl]pyrazolo[1,5-a]pyrimidine-3-carboxamide] | 0.43 nM | 37 nM | 0.49 nM |
| CCn1cc(NC(=O)c2cnn3cccnc23)c(-c2cc(Oc3cccc(C4(O)CN(C)C4)c3)ccc2OC(F)F)n1 [Example 108, N-[3-[2-(difluoromethoxy)-5-[3-(3-hydroxy-l-methyl-azetidin-3-yl)phenoxy]phenyl]-1-ethyl-pyrazol-4-yl]pyrazolo[1,5-a]pyrimidine-3-carboxamide] | 0.69 nM | 60 nM | 0.72 nM |
| Cn1cc(NC(=O)c2cnn3cccnc23)c(-c2cc(Oc3cc(C4CC4)cc(C4(O)CNC4)c3)ccc2OC(F)F)n1 [Example 109, N-[3-[5-[3-cyclopropyl-5-(3-hydroxyazetidin-3-yl)phenoxy]-2-(difluoromethoxy)phenyl]-1-methyl-pyrazol-4-yl]pyrazolo[1,5-a]pyrimidine-3-carboxamide] | 0.88 nM | 250 nM | 0.58 nM |
| CN1CC(O)(c2cc(Oc3ccc(OC(F)F)c(-c4nn(C)cc4NC(=O)c4cnn5cccnc45)c3)cc(C3CC3)c2)C1 [Example 110, N-[3-[5-[3-cyclopropyl-5-(3-hydroxy-l-methyl-azetidin-3-yl)phenoxy]-2-(difluoromethoxy)phenyl]-1-methyl-pyrazol-4-yl]pyrazolo[1,5-a]pyrimidine-3-carboxamide] | 0.69 nM | 30 nM | 0.36 nM |
| CCn1cc(NC(=O)c2cnn3cccnc23)c(-c2cc(Oc3cc(F)cc(C4(O)CNC4)c3)ccc2OC(F)F)n1 [Example 111, N-[3-[2-(difluoromethoxy)-5-[3-fluoro-5-[3-hydroxyazetidin-3-yl)phenoxy]phenyl]-1-ethyl-pyrazol-4-yl]pyrazolo[1,5-a]pyrimidine-3-carboxamide] | 0.38 nM | 270 nM | 0.56 nM |
| CCn1cc(NC(=O)c2cnn3cccnc23)c(-c2cc(Oc3cccc(C4(O)CNC4)c3)ccc2OC(F)F)n1 [Example 112, N-[3-[2-(difluoromethoxy)-5-[3-(3-hydroxyazetidin-3-yl)phenoxy]phenyl]-1-ethyl-pyrazol-4-yl]pyrazolo[1,5-a]pyrimidine-3-carboxamide] | 0.38 nM | 110 nM | 0.46 nM |
| CN1CC(n2cc(Oc3ccc(OC(F)F)c(-c4nn(C)cc4NC(=O)c4cnn5cccnc45)c3)cn2)C1 [Example 115, N-[3-[2-(difluoromethoxy)-5-[1-(1-methylazetidin-3-yl)pyrazol-4-yl]oxy-phenyl]-1-methyl-pyrazol-4-yl]pyrazolo[1,5-a]pyrimidine-3-carboxamide] | 3 nM | 48 nM | 1.6 nM |
| Cn1cc(NC(=O)c2cnn3cccnc23)c(-c2cc(Oc3cnn(C4CNC4)c3)ccc2OC(F)F)n1 [Example 116, N-[3-[5-[l-(azetidin-3-yl)pyrazol-4-yl]oxy-2-(difluoromethoxy)phenyl]-1-methyl-pyrazol-4-yl]pyrazolo[1,5-a]pyrimidine-3-carboxamide] | 1.5 nM | 95 nM | 0.84 nM |
| CN1CC(CC#N)(n2cc(Oc3ccc(OC(F)F)c(-c4nn(C)cc4NC(=O)c4cnn5cccnc45)c3)cn2)C1 [Example 117, N-[3-[5-[1-[3-(cyanomethyl)-1-methyl-azetidin-3-yl]pyrazol-4-yl]oxy-2-(difluoromethoxy)phenyl]-1-methyl-pyrazol-4-yl]pyrazolo[1,5-a]pyrimidine-3-carboxamide] | 1.5 nM | 84 nM | 0.66 nM |
| Cn1cc(NC(=O)c2cnn3cccnc23)c(-c2cc(Oc3cnn(C4CC(O)C4)c3)ccc2OC(F)F)n1 (stereo not drawn) [Example 118, N-[3-[2-(difluoromethoxy)-5-[1-(3-hydroxycyclobutyl)pyrazol-4-yl]oxy-phenyl]-1-methyl-pyrazol-4-yl]pyrazolo[1,5-a]pyrimidine-3-carboxamide] | 0.43 nM | 48 nM | 0.5 nM |
